# Residues, ends and D or L forms follow the SMILES beside them.
# T1: human TG2 (Homo sapiens, UniProt P21980)
# T1 sequence (P21980 1-687): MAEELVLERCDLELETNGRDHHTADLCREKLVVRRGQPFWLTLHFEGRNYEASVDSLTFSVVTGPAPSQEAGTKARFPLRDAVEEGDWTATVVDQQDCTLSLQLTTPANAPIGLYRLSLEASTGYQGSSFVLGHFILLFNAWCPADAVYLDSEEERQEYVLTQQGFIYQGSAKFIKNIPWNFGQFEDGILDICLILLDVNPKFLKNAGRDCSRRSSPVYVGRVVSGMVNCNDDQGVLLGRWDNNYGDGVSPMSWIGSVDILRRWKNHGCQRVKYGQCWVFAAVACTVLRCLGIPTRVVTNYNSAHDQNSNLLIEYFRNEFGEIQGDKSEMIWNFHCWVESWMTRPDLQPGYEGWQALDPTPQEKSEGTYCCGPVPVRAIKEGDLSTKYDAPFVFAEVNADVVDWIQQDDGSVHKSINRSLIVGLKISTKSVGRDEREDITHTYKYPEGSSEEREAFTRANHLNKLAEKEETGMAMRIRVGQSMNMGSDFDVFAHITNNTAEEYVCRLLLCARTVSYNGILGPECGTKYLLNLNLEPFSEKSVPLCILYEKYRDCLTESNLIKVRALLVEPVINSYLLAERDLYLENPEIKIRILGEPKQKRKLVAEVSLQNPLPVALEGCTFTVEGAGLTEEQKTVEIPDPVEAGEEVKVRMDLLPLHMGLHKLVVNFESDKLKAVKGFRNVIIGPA
# How the values were obtained:
# [1] = test system: NRK cells; test: Co-localized endocytosis of Sulfo-Cy5 33-mer gluten peptide and fluorescent α2M in NRK cells; type: cell-based, rat; settings: Sulfo-Cy5-tagged 33 mer; compared with α2M and HB230
# Procedure: FIGS. 6A-6B: Fluorescently tagged 33 mer peptide (A) induces a similar pattern of internalization of α2M as HB-230 (B).
# Thus far, endocytosis of the TG2-α2M complex had exclusively been visualized using peptidic probes that irreversibly label the active site of TG2. To investigate whether transient enzyme-substrate complexes can be efficiently internalized in an α2M-dependent manner, NRK cells were co-incubated with fluorescent α2M and the aforementioned 33-residue gluten peptide (33 mer) tagged with a Sulfo-Cy5 fluorophore.
# [2] = test system: α2M; test: Internalization of fluorescently labeled α2M by NRK cells in the presence of unlabeled TG2 inhibitors; type: cell-based, rat; settings: 100 μM cystamine by itself
# Procedure: FIG. 5A-5C: (A) HB-225 induces a dose dependent uptake of fluorescently tagged α2M.
# To identify the conformational requirements for high-affinity recognition of TG2 by α2M, fluorescently labeled α2M was added to NRK cell cultures in the presence of different (unlabeled) TG2 inhibitors.
# [3] = test system: TG2; settings: role: inhibitor; absence of active site occupancy; Palanski and Khosla, 2018; cited from earlier work
# [4] = test system: clathrin mediated endocytosis; test: Inhibition of α2M / 33-mer endocytosis by inhibitors of clathrin mediated endocytosis in NRK cells; type: cell-based, rat
# Excerpt: FIG. 7A-7D: (A) Endocytosis of α2M (green) and 33 mer gluten peptide (red) by NRK cells.
# Low density lipoprotein (LDL) receptor-related protein 1 (LRP-1, a.k.a., (α2M receptor or CD91), a member of the LDL receptor family, is responsible for receptor-mediated endocytosis of α2M. Although this receptor is expressed on the surface of a wide range of cell types within the body, α2M endocytosis by LRP-1 is only triggered when this ubiquitous plasma protein undergoes a conformational change upon binding to its protease or non-protease ligands (Bres and Faissner, 2019). We sought to establish whether endocytosis of the ternary α2M-TG2-peptide complex was mediated by LRP-1 using pharmacologic inhibitors of clathrin mediated endocytosis.
# [5] = test system: cubilin; test: Depletion of cell surface cubilin on NRK cells; type: cell-based, rat
# Procedure: FIG. 12A-12C: (A) Treating NRK cells with increasing concentrations of HB-3-002 leads to decrease of cell membrane cubilin after a 90 min treatment. (B) Quantification of dose response.
# Cell surface proteins can also be pharmacological targets. Thus we targeted cubilin, the canonical receptor for the intrinsic factor (IF)-vitamin B12 complex. We synthesized a pentapeptide harbouring a Gln residue in the X position, and vitamin B12 conjugated to the DAB substituted Y amino acid through a PEG-5 linker (HB3-2). […] Cubilin is stained using a sheep anti cubilin antibody which recognizes rat cubilin and an ovine Alexa-647 secondary antibody.
# [6] = test system: streptavidin; test: Endocytosis of fluorescent streptavidin by NRK cells; type: cell-based, rat
# Procedure: FIG. 11: (A) Treating NRK cells with increasing concentrations of HB-3-003 in the presence of fluorescently tagged streptavidin leads to increased internalization of streptavidin after a 90 min treatment. (B) Quantification of dose response.
# In order to determine the ability of this pathway to clear specifically targeted proteins from the extracellular environment, we synthesized a pentapeptide harboring the electrophilic warhead and a PEG-4 biotin conjugated to the DAB substituted Y amino acid (HB2110). Streptavidin is expected to bind to the biotin arm of the probe, and thus be endocytosed along with the rest of the complex as previously described. To test this hypothesis NRK cells were treated with 2 μM HB2110 and 1 μM Cy5-conjugated streptavidin.
# We also synthesized the equivalent pentapeptide harbouring a Gln residue in the place of the electrophilic warhead, with biotin conjugated to the DAB substituted Y amino acid through a PEG linker (HB3-3). We then assed the ability of cells to endocytose fluorescent streptavidin in the presence of HB3-3 and α2M.
# [7] = test system: NRK cells; test: Intracellular payload (Cy5) release in NRK cells with or without cathepsin B inhibitor; type: cell-based, rat
# Procedure: FIG. 13A-13B: (A) HB-2108 is strongly endocytosed and cleaved leading to diffuse staining, (B) Inhibiting Cathepsin B mitigates diffuse pattern.
# We synthesized HB2108, by linking AcPQLPF to Cy5 via a cathepsin-labile valine-citrulline linker. NRK cells were then treated with HB2108 and α2M in the presence and absence of a cathepsin B inhibitor.
# [8] = target: T1, human TG2; test: Steady-state kinetic analysis / TG2 inhibition; type: biochemical; settings: role: inhibitor, substrate PQLPF and inhibitor concentrations varied
# Excerpt: FIG. 1: Kinetic analysis of TG2 inhibition by HB-225. Both substrate (PQLPF) and inhibitor concentrations were varied.
# FIG. 2: Comparison of TG2 inhibition by HB-225 and HB-230. The two compounds have very similar kinetic properties.
# Encouraged by this finding, we went on to design and synthesize our target fluorescent probe, HB230, in which a second unnatural amino acid residue, diaminobutyrate (DAB), was installed in place of Leu (L) in HB225. This residue was also predicted to neither be recognized by TG2 nor HLA-DQ2. Attachment of a Sulfo-Cy5 fluorophore via amide linkage to the DAB residue yielded the desired probe.
# [9] = test system: normal rat kidney (NRK) cells; test: Uptake of fluorescent probe by NRK cells with or without α2M; type: cell-based
# Excerpt: (C) Fluorescently tagged α2M colocalizes strongly with HB-230.
# FIG. 15. Uptake of HB-2121.
# Puncta of two distinct sizes were observed.
# To verify that HB230 internalization was dependent on TG2 activity, HB258 was designed and synthesized as a control probe. This dihydro-analog is otherwise identical to HB230 but lacks its electrophilic warhead and is therefore unable to irreversibly bond to the active site C277 residue of TG2.
# [10] = test system: chymotrypsin; test: Metabolism by chymotrypsin; type: in vitro ADME; settings: role: substrate
# Excerpt: (§1) FIGS. 14A-14B. Metabolic stability of HB-230 and HB-2121. (A) HB-230 is transformed by chymotrypsin to give the C-terminal carboxylic acid. This metabolite is subsequently cleaved by carboxypeptidase to give the tetrapeptide without the terminal phenylalanine. (B) HB-2121 is stable to both chymotrypsin and carboxypeptidase mediated metabolism.
# (§2) HB-2121 is analogous to the TG2 inhibitor/probe HB-230 but with one modification; the primary amide C-terminus of HB-230 was replaced with a tertiary dimethyl amide. This change greatly enhances the gastrointestinal stability of the probe.
# [11] = test system: carboxypeptidase; test: Metabolism by carboxypeptidase; type: in vitro ADME; settings: role: substrate, subsequent to chymotrypsin
# Excerpt: as §1, §2
# [12] = high concentrations of both the probe and α2M
molecule,measurement,setting,value
"LQLQPFPQPQLPYPQPQLPYPQPQLPYPQPQPF [33 mer, 33-residue gluten peptide tagged with a Sulfo-Cy5 fluorophore]",co-localized endocytosis with fluorescent α2M,[1],entirely analogous pattern of co-localized endocytosis
"NCCSSCCN [Cystamine, cystamine]",internalization of fluorescent α2M,[2],unable to promote rapid internalization of fluorescent α2M by itself
same,inactivation of TG2,[3],inactivates TG2 by promoting C370-C371 disulfide bond formation
methyl-β-cyclodextrin,inhibition of α2M and peptide colocalization as large endocytic puncta,[4]; 12.5 mM MβCD,strong inhibition
vitamin B12 [reference compound],depletion of cubilin by individual components,[5]; component alone,do not promote the depletion of cubilin
O=C1N=C(NS(=O)(=O)c2cccc3ccccc23)S/C1=C\c1ccc(Br)cc1 [Pitstop-2],inhibition of α2M and peptide colocalization as large endocytic puncta,[4]; 25 uM Pitstop,strong inhibition
"O=C(O)CCCC[C@@H]1SC[C@@H]2NC(=O)N[C@@H]21 [Biotin, reference compound]",uptake of streptavidin by individual components,"[6]; component alone, NRK cells",do not lead to increased uptake of streptavidin
"CC(=O)N1CCC[C@H]1C(=O)N[C@@H](CCC(N)=O)C(=O)N[C@@H](CCC(=O)NCCOCCOCCNC(=O)CCCC[C@@H]1SC[C@@H]2NC(=O)N[C@@H]21)C(=O)N1CCC[C@H]1C(=O)N[C@@H](Cc1ccccc1)C(N)=O [HB-3-003] (HELM PEPTIDE1{[ac].P.Q.E.P.F.[am]}|CHEM1{[O=C(CCCC[C@@H]1SC[C@@H]2NC(=O)N[C@@H]21)NCCOCCOCCN[*:1]]}$PEPTIDE1,CHEM1,4:R3-1:R1$$$V2.0)",endocytosis of fluorescent streptavidin,"[6]; presence of α2M, 90 min",endocytosed in an HB3-3 dose dependent manner
CC(=O)N1CCC[C@H]1C(=O)N[C@@H](CCC(N)=O)C(=O)N[C@@H](CC(C)C)C(=O)N1CCC[C@H]1C(=O)N[C@@H](Cc1ccccc1)C(=O)N[C@H](C(=O)N[C@@H](CCCNC(N)=O)C(=O)NCCCCCCNC(=O)CCCCC[N+]1=C(/C=C/C=C/C=C2/N(C)c3ccccc3C2(C)C)C(C)(C)c2ccccc21)C(C)C [HB-2108] (HELM PEPTIDE1{[ac].P.Q.L.P.F.V.[Cit].[CN1/C(=C/C=C/C=C/C2=[N+](CCCCCC(=O)NCCCCCCN[*:1])c3ccccc3C2(C)C)C(C)(C)c2ccccc21]}$$$$V2.0),Cy5 staining / colocalization with α2M,[7]; absence of cathepsin B inhibitor,very diffuse and no longer colocalizes with α2M
same,Cy5 staining / colocalization with α2M,[7]; pre-treatment with cathepsin inhibitor,remains strongly colocalized with α2M in the lysosome
CC(=O)N1CCC[C@H]1C(=O)N[C@@H](CC/C=C/C(=O)N(C)C)C(=O)N[C@@H](CC(C)C)C(=O)N1CCC[C@H]1C(=O)N[C@@H](Cc1ccccc1)C(N)=O [HB-225] (HELM PEPTIDE1{[ac].P.[CN(C)C(=O)/C=C/CC[C@H](N[*:1])C(=O)[*:2]].L.P.F.[am]}$$$$V2.0),Ki,[8],13 µM
same,kinact,[8]; read-out: ki (inactivation of TG2) (converted),0.000833 s⁻¹
O=C(N/N=C/c1cc(O)c(O)cc1O)c1cc2ccccc2cc1O [Dyno-4a],inhibition of α2M and peptide colocalization as large endocytic puncta,[4]; 20 uM Dyno-4a,strong inhibition
CC(=O)N1CCC[C@H]1C(=O)N[C@@H](CCCCC(=O)N(C)C)C(=O)N[C@@H](CCNC(=O)CCCCC[N+]1=C(/C=C/C=C/C=C2/N(C)c3ccc(S(=O)(=O)O)cc3C2(C)C)C(C)(C)c2cc(S(=O)(=O)[O-])ccc21)C(=O)N1CCC[C@H]1C(=O)N[C@@H](Cc1ccccc1)C(N)=O [HB-258],appearance of intracellular puncta,[9]; [12],only appears as small intracellular puncta
same,uptake by NRK cells (probe without electrophilic warhead),[9]; [12],does not undergo significant uptake by NRK cells
CC(=O)N1CCC[C@H]1C(=O)N[C@@H](CC/C=C/C(=O)N(C)C)C(=O)N[C@@H](CCNC(=O)CCCCC[N+]1=C(/C=C/C=C/C=C2/N(C)c3ccc(S(=O)(=O)O)cc3C2(C)C)C(C)(C)c2cc(S(=O)(=O)[O-])ccc21)C(=O)N1CCC[C@H]1C(=O)N[C@@H](Cc1ccccc1)C(=O)N(C)C [HB-2121],metabolism by chymotrypsin,[10],complete resistance to metabolism
same,metabolism by carboxypeptidase,[11],no subsequent metabolism
same,uptake by NRK cells with or without α-2-macroglobulin,"[9]; 2 μM HB-2121, with or without 100 μg/mL α-2-macroglobulin",α2M-enhanced endocytic uptake
"RAP: inhibitor of LRP-1 (protein, UniProt P30533 35-357, looked up) Alpha-2-macroglobulin …: YSREKNQPKPSPKRESGEEFRMEKLNQLWEKAQRLHLPPVRLAELHADLKIQERDELAWKKLKLDGLDEDGEKEARLIRNLNVILAKYGLDGKKDARQVTSNSLSGTQEDGLDDPRLEKLWHKAKTSGKFSGEELDKLWREFLHHKEKVHEYNVLLETLSRTEEIHENVISPSDLSDIKGSVLHSRHTELKEKLRSINQGLDRLRRVSHQGYSTEAEFEEPRVIDLWDLAQSANLTDKELEAFREELKHFEAKIEKHNHYQKQLEIAHEKLRHAESVGDGERVSRSREKHALLEGRTKELGYTVKKHLQDLSGRISRARHNEL",effect of LRP-1 inhibition on depletion of surface cubilin,"[5]; LRP-1 inhibited through RAP, HB3-2 with intrinsic factor",mitigates the depletion of surface cubilin

# Reference: patent US20260364210A1, “COMPOSITIONS AND METHODS FOR TRANSGLUTAMINASE-MEDIATED ENDOCYTOSIS” (The Board of Trustees of the Leland Stanford Junior …, priority 2022, published 2026)
